Data taken from patent US20230027066A1 (Urovant Sciences GmbH, priority 2019, published 2023).

Columns and labels:
[1] = Phase 3 study (75 mg), post-void residual urine volume (PVR); format: in vivo, human
Description: The risk of acute urinary retention or morbidities related to an increase in Post-Void Residual (PVR) is a concern with antimuscarinic therapy that promotes smooth muscle relaxation by inhibiting acetylcholine-induced smooth muscle contraction. If, during contraction, the bladder cannot generate enough pressure to overcome the outlet resistance in the urethra, either because of poor detrusor contractility or profound obstruction (most commonly from BPH), acute urinary retention or incomplete emptying of the bladder may result.
The volume of urine that remains in the bladder after voiding (PVR) is an objective measurement that may serve as a proxy for impaired ability to void.
PVR were performed via ultrasound at the visits indicated in the Schedule of Activities.

[2] = system: men and women with overactive bladder; assay: Phase 3 study (75 mg), patient-reported outcomes (OAB-q LF, PGI); format: in vivo, human; design: OAB-q sleep score, improvement greater than placebo / HRQL Total Score, improvement greater than placebo / OAB-q HRQL Total Score, Active - Placebo LS Means Difference: scale not given here
Description: Patients completed paper questionnaires at the site at the start of each required study visit to assess patient-perceived symptom relief, symptom bother, and health-related quality of life at the study visits. […] These included the following questionnaires:
1. Global Impression Items include Patient Global Impression of Severity (PGI-Severity), Patient Global Impression of Control (PGI-Control), Patient Global Impression of Frequency (PGI-Frequency), Patient Global Impression of Leakage (PGI-Leakage), and Patient Global Impression of Change (PGI-Change).
2. Overactive Bladder Questionnaire (OAB-q long form [OAB-q LF], 1-week recall) is a 33-item patient-administered, disease-specific questionnaire that includes a Health-Related QoL (HRQL) scale (25 items) and a Symptom Bother Scale (8 items). The HRQL is a multidomain concept that represents the patient's general perception of the effect of illness and treatment on physical, psychological, and social aspects of life. […] In the present study, the HRQL scale is divided into 4 subscales: Coping, Concern/Worry, Sleep, and Social Interaction. The Coping subscale (also referred to as the coping domain score) was a secondary endpoint, with items scored from 1 (none of the time) to 6 (all the time), with higher scores indicating better QoL. The HRQL total score is calculated by summating the individual HRQL subscale scores. The Symptom Bother Scale items are scored from 1 (not at all) to 6 (a very great deal), with higher Symptom Bother scores indicating greater symptom severity. The instrument was developed and validated in both continent and incontinent OAB patients, including both men and women.
With the exception of the symptom bother score, a responder was defined as having a change from baseline ≥10. For symptom bother score, a responder was defined as having a change from baseline […]. A higher proportion of patients represented a favorable response.

[3] = Males with medical history of BPH
[4] = 50% Total Incontinence Responders, Week 12

O=C(Nc1ccc(C[C@@H]2CC[C@H]([C@H](O)c3ccccc3)N2)cc1)[C@@H]1CCc2nccc(=O)n21 [Vibegron, (6S)-N-[4-[[(2S,5R)−5-[(R)-hydroxy(phenyl)methyl]pyrrolidin−2-yl]methyl]phenyl]−4-oxo−7,8-dihydro−6H-pyrrolo[1,2-a]pyrimidine−6-carboxamide]
PVR category at Week 12 <100 mL, patients ([1]; Females): 96.8%
PVR category at Week 12 ≥100 mL to <200 mL, patients ([1]; Females): 3.0%
PVR category at Week 12 ≥200 mL to <350 mL, patients ([1]; Females): 0.2%
PVR category at Week 12 ≥350 mL, patients ([1]; Females): 0
PVR, Mean Change from Baseline at Week 12 (SD) ([1]; Females): 0.1 (36.19) mL
PVR category at Week 12 <100 mL, patients ([1]; Males): 89.7%
PVR category at Week 12 ≥100 mL to <200 mL, patients ([1]; Males): 7.7%
PVR category at Week 12 ≥200 mL to <350 mL, patients ([1]; Males): 2.6%
PVR category at Week 12 ≥350 mL, patients ([1]; Males): 0
PVR, Mean Change from Baseline at Week 12 (SD) ([1]; Males): 2.2 (48.45) mL
PVR category at Week 12 <100 mL, patients [1, 3]: 96.6%
PVR category at Week 12 ≥100 mL to <200 mL, patients [1, 3]: 0%
PVR category at Week 12 ≥200 mL to <350 mL, patients [1, 3]: 3.4%
PVR category at Week 12 ≥350 mL, patients [1, 3]: 0
PVR, Mean Change from Baseline at Week 12 (SD) [1, 3]: −3.4 (42.45) mL
PVR category at Week 12 <100 mL, patients ([1]; all patients): 89.9%
PVR category at Week 12 ≥100 mL to <200 mL, patients ([1]; all patients): 3.5%
PVR category at Week 12 ≥200 mL to <350 mL, patients ([1]; all patients): 0.6%
PVR category at Week 12 ≥350 mL, patients ([1]; all patients): 0
PVR, Mean Change from Baseline at Week 12 (SD) ([1]; all patients): 0.4 (38.27) mL
OAB-q Coping Subscore, Change from baseline at week 12, LS Means (SE) [2, 4]: 20.3 (1.35)
OAB-q Coping Subscore, Mean [2, 4]: 83.08 (18.924)
OAB-q Symptom Bother Subscore, Change from baseline at week 12, LS Means [2, 4]: −25.5
OAB-q Symptom Bother Subscore, Mean [2, 4]: 21.18
Change from Baseline in PGI-Control, LS Mean ([2]; 75% UUI Responders, Week 4): −0.8 (0.06)
PGI-Control, Mean (SD) ([2]; 75% UUI Responders, Week 4): 2.42 (0.887)
Change from Baseline in PGI-Control, LS Mean ([2]; 75% UUI Responders, Week 8): −1.0 (0.06)
PGI-Control, Mean (SD) ([2]; 75% UUI Responders, Week 8): 2.25 (0.863)
Change from Baseline in PGI-Control, LS Mean ([2]; 75% UUI Responders, Week 12): −1.2 (0.06)
OAB-q Coping Subscore, Change from baseline at week 12, LS Means (SE) ([2]; 75% UUI Responders, Week 12): 19.7 (1.48)
OAB-q Coping Subscore, Mean (SD) ([2]; 75% UUI Responders, Week 12): 83.99 (19.232)
OAB-q Symptom Bother Subscore, Change from Baseline at Week 12, LS Means (SE) ([2]; 75% UUI Responders, Week 12): −25.8 (1.38)
OAB-q Symptom Bother Subscore, Mean (SD) ([2]; 75% UUI Responders, Week 12): 20.13 (15.862)
PGI-Control, Mean (SD) ([2]; 75% UUI Responders, Week 12): 2.02 (0.784)
OAB-q Concern Subscore, Week 12 Mean (SD) ([2]; Week 12): 80.58 (21.867)
OAB-q Concern responders, Difference from Placebo ([2]; Week 12): 5.9
OAB-q Concern, Active - Placebo LS Means Difference ([2]; Week 12): 5.0
OAB-q Concern, change from baseline LS Means (SE) ([2]; Week 12): 15.3 (1.24)
OAB-q Coping Score, Active - Placebo LS Means Difference ([2]; Week 12): 3.6
OAB-q Coping Score, change from baseline LS Means (SE) ([2]; Week 12): 16.5 (1.31)
OAB-q Coping Sub score, Week 12 Mean (SD) ([2]; Week 12): 77.26 (23.242)
OAB-q Coping responders, Difference from Placebo ([2]; Week 12): 7.5
OAB-q HRQL Total Score, Active - Placebo LS Means Difference ([2]; Week 12): 3.8
OAB-q HRQL Total Score, change from baseline LS Means (SE) ([2]; Week 12): 14.6 (1.12)
OAB-q Sleep Subscore, Week 12 Mean (SD) ([2]; Week 12): 75.59 (23.883)
OAB-q Sleep responders, Difference from Placebo ([2]; Week 12): 2.1
OAB-q Sleep, Active - Placebo LS Means Difference ([2]; Week 12): 4.5
OAB-q Sleep, change from baseline LS Means (SE) ([2]; Week 12): 14.9 (1.34)
OAB-q Social Interaction Subscore, Week 12 Mean (SD) ([2]; Week 12): 88.57 (18.011)
OAB-q Social Interaction responders, Difference from Placebo ([2]; Week 12): 5.4
OAB-q Social Interaction, Active - Placebo LS Means Difference ([2]; Week 12): 1.5
OAB-q Social Interaction, change from baseline LS Means (SE) ([2]; Week 12): 10.2 (0.97)
